These results are taken from patent publication US20230190760A1, “ADVANTAGEOUS THERAPIES FOR DISORDERS MEDIATED BY IKAROS OR AIOLOS” (C4 Therapeutics, Inc., priority 2020, published 2023).

The test system of data set [1] is NCIH929.1 cells. Put plainly: NCIH929.1 cell viability assay (CellTiter-Glo, GI50). The class given is cell-based. The settings on record: 96 hr. In general terms: Cellular ATP, detected with luciferase, serves as a proxy for viable cell number.
Data set [2] in a line: Plasma PK and interconversion in rat. Type of data set: in vivo. The settings on record: Compound 1 30 mg/kg PO. The method, then:
(§1) Compound 1 was administered to a rat at a concentration of 30 mg/kg PO and monkeys at a concentration of either 60 μg/kg or 100 μg/kg PO. At the indicated timepoints shown in FIG. 25A and FIG. 25B, plasma samples were collected and the Cmax, half-life, and AUC0-inf were determined for both Compound 1 and a metabolite of Compound 1, Compound 14. The percent of Compound 14 was also determined (Table 13). PK values dose normalized to 1 mg/kg. FIG. 25A is a graph measuring the concentration of Compound 1 or Compound 14 over the course of 24 hours in monkeys administered 100 μg/kg or 60 μg/kg of Compound 1. FIG. 25B is a graph measuring the concentration of Compound 1 or Compound 14 over the course of 24 hours in a rat administered 30 mg/kg of Compound 1.

Data set [3] can be described thus: Plasma PK and interconversion in monkeys. Type of data set: in vivo. The settings on record: monkey, Compound 1 60 μg/kg or 100 μg/kg PO, dose normalized to 1 mg/kg. The method, then:
as §1

The subject of data set [4] is RPMI-8226 multiple myeloma tumors. The settings on record: Compound 1 10 μg/kg PO daily, Dexamethasone 5000 μg/kg IV once a week, Combination.
Method: A xenograft study was conducted in female CB17 SCID mice bearing RPMI-8226 multiple myeloma tumors. Female SCID mice were inoculated subcutaneously in the right flank with 10×10^6 tumors cells in 0.2 mL of PBS supplemented with matrigel (PBS:matrigel=1:1). Tumor volume was measured twice weekly in two dimensions using calipers, and volume was calculated using the formula: (w2×l)/2=mm^3, assuming 1 mg is equivalent to 1 mm^3 of tumor volume. […] Treatment began on Day 0 with established subcutaneous RPMI-8226 tumors with a mean tumor volume (MTV) of 130 mm^3.
All agents were administered to mice bearing RPMI-8226 tumors on day 0 and dosed until an individual moue tumor volume reached or exceeded 1000 mm^3, at which point the mouse was removed from the study and dosing stopped. […] Dexamethasone was dosed IV once a week at 5000 μg/kg and formulated in saline. […] Body weight and MTV were measured on a 2× weekly schedule. The study end point was reaching a TV greater than 1000 mm^3, at which point any mouse with a TV reaching this cut off TV was removed from the study. […] The survival analysis used was Logrank (Mantel-Cox test). Data are expressed as MTV±SEM.
For data set [5], the system named is TMD8 DLBCL tumors. The settings on record: Compound 1 50 μg/kg, Ibrutinib 12500 μg/kg, Combination of both; PO daily.
Method: A xenograft study was conducted in female CB17 SCID mice bearing TMD8 DLBCL tumors. Female SCID mice were inoculated subcutaneously in the right flank with 5×10^6 tumors cells in 0.2 mL of PBS supplemented with matrigel (PBS:matrigel=1:1). Tumor volume was measured twice weekly in two dimensions using calipers, and volume was calculated using the formula: (w2×l)/2=mm^3, assuming 1 mg is equivalent to 1 mm^3 of tumor volume. […] Treatment began on Day 0 with established subcutaneous TMD8 tumors with a mean tumor volume (MTV) of 107-108 mm^3.
All agents were administered to mice bearing TMD8 tumors on day 0 and dosed PO daily until individual tumor volumes reached or exceeded 1500 mm^3, at which point dosing stopped and the individual mouse was removed from the study. Compound 1 was dosed at 50 μg/kg and was formulated in PEG400 (30% v/v)+70% v/v HPMC (1% w/v) in citrate buffer (pH 5). Ibrutinib was dosed at 12.5 mg/kg and formulated in 0.5% MC+0.4% cremophor EL+0.1% sodium lauryl sulfate. Compound 1 was also dosed in combination with Ibrutinib at their respective single agent doses. Body weight and MTV was measured on a 2× weekly schedule and the study end point was when all mice were removed from the study on day 54. Statistical analysis was performed using survival analysis and the Logrank test (Mantel-Cox test). Data are expressed as MTV±SEM.
For data set [6], the system named is r/r subjects with MCL. The conditions noted are these: r/r MCL following bortezomib; cited from earlier work.

What is called GI50 is the concentration at which growth is held to half of that of the control. Read a high GI50 as less potent growth inhibition. In turn, `O=C1CC[C@H](N2C(=O)c3cccc4c(Cc5ccc(CN6CCC7(CCCO7)CC6)cc5)ccc2c34)C(=O)N1` (single isomer, unassigned) [Compound 12] gave a 50% growth inhibitory concentration (GI50) in data set [1] of 0.0107 nM. On the same count and under the same terms, next, `CC1(CN2CCC(n3cc(Cc4ccc5c6c(cccc46)C(=O)N5C4CCC(=O)NC4=O)cn3)CC2)CCC1` (centres unmarked) [Compound 2, 3-(6-((1-(1-((1-methylcyclobutyl)methyl)piperidin-4-yl)-1H-pyrazol-4-yl)methyl)-2-oxobenzo[cd]indol-1(2H)-yl)piperidine-2,6-dione]: 0.00933 nM; `O=C1CCC(N2C(=O)c3cccc4c(Cc5ccc(CN6CCN(c7ccccc7F)CC6)cc5)ccc2c34)C(=O)N1` (centres unmarked) [Compound 3, 3-(6-(4-((4-(2-fluorophenyl)piperazin-1-yl)methyl)benzyl)-2-oxobenzo[cd]indol-1(2H)-yl)piperidine-2,6-dione]: 0.0409 nM. On the same count and under the same terms, next, `N#Cc1ccc(N2CCN(Cc3ccc(Cc4ccc5c6c(cccc46)C(=O)N5C4CCC(=O)NC4=O)cc3)CC2)c(F)c1` (centres unmarked) [Compound 4, 4-(4-(4-((1-(2,6-dioxopiperidin-3-yl)-2-oxo-1,2-dihydrobenzo[cd]indol-6-yl)methyl)benzyl)piperazin-1-yl)-3-fluorobenzonitrile]: 0.0201 nM; `O=C1CCC(N2C(=O)c3cccc4c(Cc5ccc(CN6CCOCC6)cc5)ccc2c34)C(=O)N1` (centres unmarked) [Compound 5, 3-(6-(4-(morpholinomethyl)benzyl)-2-oxobenzo[cd]indol-1(2H)-yl)piperidine-2,6-dione]: 0.0498 nM; `CC1(C(=O)N2CCC(C)(n3cc(Cc4ccc5c6c(cccc46)C(=O)N5C4CCC(=O)NC4=O)cn3)CC2)CCC1` (centres unmarked) [Compound 6, 3-(6-((1-(4-methyl-1-(1-methylcyclobutane-1-carbonyl)piperidin-4-yl)-1H-pyrazol-4-yl)methyl)-2-oxobenzo[cd]indol-1(2H)-yl)piperidine-2,6-dione]: 0.0146 nM. The compound `CC1(CN2CCC(n3cc(Cc4ccc5c6c(cccc46)C(=O)N5C4CCC(=O)NC4=O)cn3)CC2)CC1` (centres unmarked) [Compound 7, 3-(6-((1-(1-((1-methylcyclopropyl)methyl)piperidin-4-yl)-1H-pyrazol-4-yl)methyl)-2-oxobenzo[cd]indol-1(2H)-yl)piperidine-2,6-dione] came in with a GI50 in data set [1] of 0.0159 nM. Still for that read-out and setting: next, `CC1(CN2CCC(C)(n3cc(Cc4ccc5c6c(cccc46)C(=O)N5C4CCC(=O)NC4=O)cn3)CC2)CC1` (centres unmarked) [Compound 8, 3-(6-((1-(4-methyl-1-((1-methylcyclopropyl)methyl)piperidin-4-yl)-1H-pyrazol-4-yl)methyl)-2-oxobenzo[cd]indol-1(2H)-yl)piperidine-2,6-dione]: 0.138 nM; `CC(C)(C)CN1CCC(n2cc(Cc3ccc4c5c(cccc35)C(=O)N4C3CCC(=O)NC3=O)cn2)CC1` (centres unmarked) [Compound 9, 3-(6-((1-(1-neopentylpiperidin-4-yl)-1H-pyrazol-4-yl)methyl)-2-oxobenzo[cd]indol-1(2H)-yl)piperidine-2,6-dione]: 0.0297 nM. On the same count and under the same terms, next, `CC(C)(C)CN1CCC(C)(n2cc(Cc3ccc4c5c(cccc35)C(=O)N4C3CCC(=O)NC3=O)cn2)CC1` (centres unmarked) [Compound 10, 3-(6-((1-(4-methyl-1-neopentylpiperidin-4-yl)-1H-pyrazol-4-yl)methyl)-2-oxobenzo[cd]indol-1(2H)-yl)piperidine-2,6-dione]: 0.0621 nM; `CC(C)(C)C(=O)N1CCC(C)(n2cc(Cc3ccc4c5c(cccc35)C(=O)N4C3CCC(=O)NC3=O)cn2)CC1` (centres unmarked) [Compound 11, 3-(6-((1-(4-methyl-1-pivaloylpiperidin-4-yl)-1H-pyrazol-4-yl)methyl)-2-oxobenzo[cd]indol-1(2H)-yl)piperidine-2,6-dione]: 0.0272 nM; `O=C1CCC(N2C(=O)c3cccc4c(Cc5cnn(C6CCN(CC7(F)CC7)CC6)c5)ccc2c34)C(=O)N1` (centres unmarked) [Compound 13, 3-(6-((1-(1-((1-fluorocyclopropyl)methyl)piperidin-4-yl)-1H-pyrazol-4-yl)methyl)-2-oxobenzo[cd]indol-1(2H)-yl)piperidine-2,6-dione]: 0.155 nM.

Broadly, the AUC(0-inf) is total exposure, with the tail of the curve extrapolated. In general, Cmax refers to the highest concentration seen after dosing. In data set [2] (dose normalized to 1 mg/kg), `O=C1CC[C@@H](N2C(=O)c3cccc4c(Cc5ccc(CN6CCOCC6)cc5)ccc2c34)C(=O)N1` [Compound 14] registered an AUC(0-inf) of 47 ng·h/mL and a Cmax of 6 ng/mL. The half-life in data set [2] (read-out: T ½ (converted)) is 2.7 h. In addition, the Cmax in data set [3] was 5 ng/mL.

As for `C[C@@H]1C[C@H]2[C@@H]3CCC4=CC(=O)C=C[C@]4(C)[C@@]3(F)[C@@H](O)C[C@]2(C)[C@@]1(O)C(=O)CO` [Dexamethasone, reference compound], the “Median Survival” value in data set [4] turned out to be 30. For `C=CC(=O)N1CCC[C@@H](n2nc(-c3ccc(Oc4ccccc4)cc3)c3c(N)ncnc32)C1` [Ibrutinib, 1-[(3R)-3-[4-amino-3-(4-phenoxy-phenyl)pyrazolo[3,4-d]pyrimidin-1-yl]piperidin-1-yl]prop-2-en-1-one, reference compound], the “Median Survival” value in data set [5] was 28.

Take `Nc1cccc2c1CN(C1CCC(=O)NC1=O)C2=O` (centres unmarked) [lenalidomide]: in data set [6], the “median duration of response [DOR]” value is 16.6 months and the “overall response rate [ORR]” value is 28%.
